Test results from US9567303B2, “Crystal of 5-hydroxy-1H-imidazole-4-carboxamide hydrate and pharmaceutical composition thereof” (FUJIFILM Corporation, priority 2011, dated 2017).

What was measured:
Type in all cases: physicochemical
[1] = Hue (H) in the Munsell color system of the crystals (Test Example 6); details: reflection method, crystals as obtained, hydrate
Description: The Munsell color system is the color system developed by Albert H. Munsell. In the system, color is defined in terms of three attributions, hue, brightness and chroma. Hue (H) represents kinds of colors and, in the Munsell color system, hue is defined by using a total of 10 hues including 5 fundamental hues of red (R), yellow (Y), green (G), blue (B) and purple (P) and 5 intermediate hues of yellow-red (YR), yellow-green (YG), blue-green (BG), blue-purple (BP) and red-purple (RP). In addition, each hue of the 10 hues is further defined by using uniform color scales so that the maximum classification is 10. Hue (H) can be measured by using a measuring device such as a colorimeter or a color-difference meter.
Hue (H) in the Munsell color system of the crystals of Examples 9, 11 to 14 was observed.
Colorimeter: Spectrophotometric colorimeter SE 2000, manufactured by NIPPON DENSHOKU […] CO., LTD.
(§1) Measurement method: Reflection method

[2] = Observation of the color of the crystals (Test Example 3); details: crystals as obtained; hydrate
Description: Observation of the color of the crystals obtained in Examples 5 and 8 and Comparative Examples 4 and 5 was made.

[3] = Storage stability test under high temperature and high humidity conditions (Test Example 1); details: about 0.2 g in glass vial, one week, 60° C., relative humidity 75%; compared to Comparative Example 1
Protocol: Storage stability test under high temperature and high humidity conditions
As a test material, the crystals obtained from Example 3 and Comparative Example 1 were selected.
Each of the test material (about 0.2 g) was added to a glass vial and stored for one week under the conditions including temperature of 60° C. and relative humidity of 75%.
State of the crystal of Example 3 before starting the test is illustrated in FIG. 4 and state of the crystal of Example 3 after finishing the test is illustrated in FIG. 5. Further, state of the crystal of Comparative Example 1 before starting the test is illustrated in FIG. 6 and state of the crystal of Comparative Example 1 after finishing the test is illustrated in FIG. 7.

[4] = Color difference of the crystal before and after storage, spectrophotometric colorimeter, reflection method (Test Examples 4 and 5); details: Table 6, stored 2 weeks, air atmosphere, 40° C., relative humidity 75%, double polyethylene bag
Protocol: As described herein, the color difference of the crystal is measured by reflection method using a spectrocolorimeter.
About 1 g of the test material was added in a storage bag, the storage bag being prepared by inserting one polyethylene bag into another polyethylene bag, each polyethylene bag having a thickness of 0.04 mm, each of the polyethylene bags was sealed, and the test material was stored for 2 weeks in conditions of air atmosphere at a temperature of 40° C. and a relative humidity of 75%. Color change of the crystal before and after the test was evaluated based on color difference.
as §1

[5] = Naked-eye observation of coloration after storage at 60° C. and 75% relative humidity; details: stored 2 weeks, relative humidity 75%
Protocol: Compound of Example 9 after it has been stored for 2 weeks under the condition including a temperature of 60° C. and a relative humidity of 75% is illustrated in FIG. 11.

Structure (SMILES): NC(=O)c1nc[nH]c1O [Example 12, 5-hydroxy-1H-imidazole-4-carboxamide.3/4 hydrate]
- Hue (H) [1]: 4.4Y

Structure (SMILES): NC(=O)c1nc[nH]c1O [Example 5, 5-hydroxy-1H-imidazole-4-carboxamide.3/4 hydrate]
- Color of crystals [2]: Pale yellow

Structure (SMILES): NC(=O)c1nc[nH]c1O [Comparative Example 5, 5-hydroxy-1H-imidazole-4-carboxamide.3/4 hydrate]
- Color of crystals [2]: Blue

Structure (SMILES): NC(=O)c1nc[nH]c1O.O [Example 3, 5-hydroxy-1H-imidazole-4-carboxamide hydrate]
- Coloration and storage stability of the crystal [3]: clearly less coloration and better storage stability

Structure (SMILES): NC(=O)c1nc[nH]c1O [Comparative Example 7, 5-hydroxy-1H-imidazole-4-carboxamide.3/4 hydrate, reference compound]
- Color difference (ΔE) ([4]; hydrate): 8.8

Structure (SMILES): NC(=O)c1nc[nH]c1O [Example 9, 5-hydroxy-1H-imidazole-4-carboxamide.3/4 hydrate]
- Color difference (ΔE) ([4]; hydrate): 2.4
- Coloration observed with a naked eye after storage [5]: no coloration with blue color
- Hue (H) [1]: 3.1Y

Structure (SMILES): NC(=O)c1nc[nH]c1O [Example 11, 5-hydroxy-1H-imidazole-4-carboxamide-3/4 hydrate]
- Hue (H) [1]: 3.8Y

Structure (SMILES): NC(=O)c1nc[nH]c1O [Example 14, 5-hydroxy-1H-imidazole-4-carboxamide.3/4 hydrate]
- Hue (H) [1]: 5.9Y

Structure (SMILES): NC(=O)c1nc[nH]c1O [Example 13, 5-hydroxy-1H-imidazole-4-carboxamide.3/4 hydrate]
- Color difference (ΔE) ([4]; hydrate): 5.1
- Hue (H) [1]: 5.9Y

Structure (SMILES): NC(=O)c1nc[nH]c1O [Comparative Example 4, 5-hydroxy-1H-imidazole-4-carboxamide.3/4 hydrate]
- Color of crystals [2]: Blue

Structure (SMILES): NC(=O)c1nc[nH]c1O [Comparative Example 6, 5-hydroxy-1H-imidazole-4-carboxamide]
- Color difference (ΔE) [4]: 25.6
